Results as given in patent US11976083B2, “Inhibitors of peptidylarginine deiminases” (Gilead Sciences, Inc., priority 2020, dated 2024).

biological target: T1, human PAD4 (Homo sapiens, UniProt Q9UM07); assay: In vitro PAD4 BAEE biochemical assay; settings: BAEE substrate 3 mM, 5 nM PAD4, 2 mM calcium chloride; geometric mean of multiple experiments
T1 construct: human PAD4 (NM_012387), A2-P663, was PCR amplified; His-SUMO (N, cleaved yes); made in house; host or cells: E. coli BL21(DE3)
Text: In Vitro PAD4 BAEE Biochemical Assay
The enzymatic activity of human PAD4 was monitored in a biochemical assay in the presence or absence of compounds using the small peptidyl arginine mimic BAEE (Na-Benzoyl-L-arginine ethyl ester hydrochloride) as substrate. PAD4 activity led to deimination of BAEE and release of ammonia. Levels of ammonia were monitored by using an amine coupling reaction and were indicative of PAD4 enzymatic activity.
One hundred nanoliters of test compounds dissolved in DMSO at various concentrations were dispensed into a 384-well black OptiPlate using a Labcyte Echo instrument. Ten microliters of a solution of recombinant PAD4 and calcium chloride diluted in PAD4 assay buffer (50 mM MOPS [3-(N-morpholino) propanesulfonic acid], pH 7.6; 50 mM sodium chloride; 0.05% Tween-20; 2 mM dithiothreitol) was added to the compound-containing plate and was incubated for 30 minutes at 25° C. Ten microliters of a solution of BAEE (Sigma-Aldrich #B4500) diluted in PAD4 assay buffer was then added to start the reaction. Final concentrations were 5 nM PAD4, 2 mM calcium chloride, and 3 mM BAEE. The reaction mixture was incubated at 25° C. for 2 hours and was stopped with the addition of 10 microliters of a solution of 75 mM EDTA (Ethylenediaminetetraacetic acid) in PAD4 assay buffer. Thirty microliters of detection solution (5 mM o-phthalaldehyde, 50 mM MOPS [3-(N-morpholino) propanesulfonic acid], pH 7.6; 50 mM sodium chloride; 0.05% Tween-20; 5 mM dithiothreitol) was then added and the reaction was incubated for 1 hour at 25° C. The level of fluorescent thiol-substituted isoindole resulting from the reaction of ammonia, o-phthalaldehyde, and dithiothreitol was measured on an Envision plate reader (PerkinElmer) with 405 nm excitation and 535 nm emission.
Data were normalized based on maximum inhibition (50 micromolar of the covalent PAD inhibitor BB-Cl-Amidine (Bicker, K. L.; Anguish, L.; Chumanevich, A. A.; Cameron, M. D.; Cui, X.; Witalison, E.; Subramanian, V.; Zhang, X.; Chumanevich, A. P.; Hofseth, L. J.; Coonrod, S. A.; Thompson, P. R. ACS Med. Chem. Lett. 2012, 3, 1081-1085). and no inhibition (DMSO) controls. Least squares curve fittings were performed using a four-parameter variable slope nonlinear regression model. IC50 is defined as the concentration of compound required to inhibit 50% of maximum activity. IC50 values from multiple experiments were averaged by geometric mean and the standard deviation was calculated.

T1 sequence (Q9UM07 2-663): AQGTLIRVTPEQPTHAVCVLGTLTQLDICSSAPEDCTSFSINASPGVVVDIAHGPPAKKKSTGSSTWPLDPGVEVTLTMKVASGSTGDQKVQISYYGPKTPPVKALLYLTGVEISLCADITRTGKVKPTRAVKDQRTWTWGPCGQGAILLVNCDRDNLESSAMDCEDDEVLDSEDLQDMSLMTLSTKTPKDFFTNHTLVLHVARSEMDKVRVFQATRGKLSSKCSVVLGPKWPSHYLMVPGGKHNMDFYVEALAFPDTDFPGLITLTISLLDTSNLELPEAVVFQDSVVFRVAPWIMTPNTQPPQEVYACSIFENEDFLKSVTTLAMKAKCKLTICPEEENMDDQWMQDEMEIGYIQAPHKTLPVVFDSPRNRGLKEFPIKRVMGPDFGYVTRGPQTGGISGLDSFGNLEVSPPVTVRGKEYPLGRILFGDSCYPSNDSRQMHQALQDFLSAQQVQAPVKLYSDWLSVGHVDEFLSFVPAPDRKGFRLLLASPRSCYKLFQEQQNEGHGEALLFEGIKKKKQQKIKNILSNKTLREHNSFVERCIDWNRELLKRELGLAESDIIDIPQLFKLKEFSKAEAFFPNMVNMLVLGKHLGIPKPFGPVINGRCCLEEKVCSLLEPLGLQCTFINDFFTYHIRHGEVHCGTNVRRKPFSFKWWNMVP

| SMILES | IC50 [nM] |
| --- | --- |
| C[C@H]1NC(=O)[C@@H]2C[C@H]2CCCCCn2c(-c3nc4cc(C(=O)N[C@H]5CNCC[C@@H]5F)c(F)cc4n3CCOC3CC3)cc3ccc1nc32 [Example 600, 1-[2-(cyclopropoxy)ethyl]-6-fluoro-~{N}-[(3~{S},4~ {S})-4-fluoro-3-piperidyl]-2-[(2~{R},5~{R},7~{R})-2-methyl-4-oxo-3,13,19-triazatetracyclo[11.5.2.0^ {5,7}.0^{16,20}]icosa-1(19),14,16(20),17-tetraen-14-yl]benzimidazole-5-carboxamide] | 46 |
| C[C@H]1NC(=O)[C@@H]2[C@@H](CCCC(F)(F)Cn3c(-c4nc5cc(C(=O)N[C@H]6CNCC[C@@H]6F)c(F)cc5n4C)cc4ccc1nc43)C2(F)F [Example 377, 6-fluoro-~{N}-[(3~{S},4~{S})-4-fluoro-3-piperidyl]-1-methyl-2-[(2~{R},5~{S},7~{R})-6,6,11,11-tetrafluoro-2-methyl-4-oxo-3,13,19-triazatetracyclo[11.5.2.0^{5,7}.0^{16,20}]icosa-1(19),14,16(20),17-tetraen-14-yl]benzimidazole-5-carboxamide] | 32 |
| COc1cc(C(=O)N[C@H]2CNCC[C@@H]2F)cc2nc(-c3cc4ccc5nc4n3CCCCC[C@@H]3CC[C@H]3C(=O)N[C@@H]5C)n(C)c12 (single isomer, unassigned) [Example 487, ˜{N}-[(3˜{S},4˜{S})-4-fluoro-3-piperidyl]-7-methoxy-1-methyl-2-[(2˜{R},5˜{R},8˜{R})-2-methyl-4-oxo-3,14,20-triazatetracyclo[12.5.2.0^{5,8}.0^{17,21}]henicosa-1(20),15,17(21),18-tetraen-15-yl]benzimidazole-5-carboxamide] | 82 |
| COc1cc(C(=O)N2[C@H]3CC[C@@H]2[C@H](N)C3)cc2nc(-c3cc4ccc5nc4n3CCC/C=C/c3ccccc3C(=O)N[C@@H]5C)n(C)c12 [Example 24, (2~{R},11~{E})-17-[5-[(1~{R},2~{R},4~{S})-2-amino-7-azabicyclo[2.2.1]heptane-7-carbonyl]-7-methoxy-1-methyl-benzimidazol-2-yl]-2-methyl-3,16,22-triazatetracyclo[14.5.2.0^{5,10}.0^{19,23}] tricosa-1(22),5,7,9,11,17,19(23),20-octaen-4-one] | 56 |
| COc1cc(C(=O)N2[C@H]3CC[C@@H]2[C@H](N)C3)cc2nc(-c3cc4ccc5nc4n3C[C@H]3C[C@@H]3COCC(=O)N[C@@H]5C)c(C)n12 [Example 325, (3~{S},5~{S},11~{R})-17-[7-[(1~{R},2~{R},4~{S})-2-amino-7-azabicyclo[2.2.1]heptane-7-carbonyl]-5-methoxy-3-methyl-imidazo[1,2-a]pyridin-2-yl]-11-methyl-7-oxa-1,10,19-triazatetracyclo[10.5.2.0^{3,5}.0^{15,18}] nonadeca-12(19),13,15(18),16-tetraen-9-one] | 16 |
| COc1cc(C(=O)N[C@H]2CNCC[C@@H]2O)cc2nc(-c3cc4ccc5nc4n3CCCCCCC(C)(C)C(=O)N[C@@H]5C)n(C)c12 [Example 244, ~{N}-[(3~{S},4~{S})-4-hydroxy-3-piperidyl]-7-methoxy-1-methyl-2-[(11~{R})-8,8,11-trimethyl-9-oxo-1,10,19-triazatricyclo[10.5.2.0^{15,18}]nonadeca-12(19),13,15(18),16-tetraen-17-yl]benzimidazole-5-carboxamide] | 2580 |
| COc1cc(C(=O)N2CC[C@@H](OC)[C@@H](N)C2)cc2nc(-c3cc4ccc5nc4n3CCCCCc3cc(Cl)ncc3C(=O)N[C@@H]5C)n(C)c12 [Example 653, 17-[5-[(3~{S},4~{R})-3-amino-4-methoxy-piperidine-1-carbonyl]-7-methoxy-1-methyl-benzimidazol-2-yl]-8-chloro-2-methyl-3,7,16,22-tetrazatetracyclo[14.5.2.0^ {5,10}.0^{19,23}] tricosa-1(22),5,7,9,17,19(23), 20-heptaen-4-one] | 44 |
| COc1cc(C(=O)N2C[C@H](N)[C@@H]3CC[C@H]2C3)cc2nc(-c3cc4ccc5nc4n3CCCCCc3nccnc3C(=O)N[C@@H]5C)n(C)c12 [Example 484, (2~{R})-17-[5-[(1~{S},4~{R},5~{R})-4-amino-2-azabicyclo[3.2.1]octane-2-carbonyl]-7-methoxy-1-methyl-benzimidazol-2-yl]-2-methyl-3,6,9,16,22-pentazatetracyclo[14.5.2.0^{5,10}.0^{19, 23}]tricosa-1(22),5(10),6,8,17,19(23),20-heptaen-4-one] | 44 |
| COc1cc(C(=O)N[C@H]2CNC[C@@H](C)C2)cc2nc(-c3cc4ccc5nc4n3CCCCCCC(C)(C)C(=O)N[C@@H]5C)n(C)c12 [Example 68, 7-methoxy-1-methyl-~{N}-[(3~{R},5~{S})-5-methyl-3-piperidyl]-2-[(11~{R})-8,8,11-trimethyl-9-oxo-1,10,19-triazatricyclo[10.5.2.0^{15,18}]nonadeca-12(19),13,15(18),16-tetraen-17-yl]benzimidazole-5-carboxamide] | 287 |

Results, then the molecule that gave them:

| IC50 [nM] | SMILES |
| --- | --- |
| 86 | COc1cc(C(=O)N2C[C@H]3C[C@@H]2[C@@H]3N)cc2nc(-c3cc4ccc5nc4n3CC(F)(F)CCC[C@@H]3C[C@H]3C(=O)N[C@@H]5C)n(C)c12 [Example 666, (2~{R},5~{R},7~{R})-14-[5-[(1~{R},4~{R},5~{R})-5-amino-2-azabicyclo [2.1.1]hexane-2-carbonyl]-7-methoxy-1-methyl-benzimidazol-2-yl]-11,11-difluoro-2-methyl-3,13,19-triazatetracyclo [11.5.2.0^{5,7}.0^{16,20}] icosa-1(19),14,16(20),17-tetraen-4-one] |
| 156 | COc1cc(C(=O)N2CC[C@@H](OC)[C@@H](N)C2)cc2nc(-c3cc4ccc5nc4n3CCCC(F)(F)C[C@H]3C[C@@H]3C(=O)N[C@@H]5C)n(C)c12 [Example 856, (2~{R},5~{S},7~{R})-14-[5-[(3~{S),4~{R})-3-amino-4-methoxy-piperidine-1-carbonyl]-7-methoxy-1-methyl-benzimidazol-2-yl]-9,9-difluoro-2-methyl-3,13,19-triazatetracyclo [11.5.2.0^{5,7}.0^{16,20}] icosa-1(19),14,16(20), 17-tetraen-4-one] |
| 27 | COc1cc(C(=O)N2C[C@H](N)[C@@H]3CC[C@H]2C3)cc2nc(-c3cc4ccc5nc4n3CCCCCc3ccccc3C(=O)N[C@@H]5C)n(C3CC3)c12 [Example 673, (2~{R})-17-[5-[(1~{S},4~ {R},5~{R})-4-amino-2-azabicyclo[3.2.1]octane-2-carbonyl]-1-cyclopropyl-7-methoxy-benzimidazol-2-yl]-2-methyl-3,16,22-triazatetracyclo[14.5.2.0^ {5,10}.0^{19,23}] tricosa-1(22),5(10),6,8, 17,19(23),20-heptaen-4-one] |
| 17 | C[C@H]1NC(=O)c2ccnn2CCCCCn2c(-c3nc4cc(C(=O)N5C[C@H](N)[C@@H]6CC[C@H]5C6)cc(F)c4n3C3CC3)cc3ccc1nc32 [Example 912, (2~{R})-16-[5-[(1~{S},4~{R},5~ {R})-4-amino-2-azabicyclo [3.2.1]octane-2-carbonyl]-1-cyclopropyl-7-fluoro-benzimidazol-2-yl]-2-methyl-3,8,9,15,21-pentazatetracyclo [13.5.2.0^{5,9}.0^{18,22}] docosa-1(21),5,7,16,18(22),19-hexaen-4-one] |
| 15 | C[C@H]1NC(=O)c2ccc(Cl)nc2CCCCCn2c(-c3nc4cc(C(=O)N5[C@H]6CC[C@@H]5[C@H](N)C6)cc(F)c4n3C3CC3)cc3ccc1nc32 [Example 808, (2~{R})-17-[5-[(1~{R},2~{R},4~ {S})-2-amino-7-azabicyclo [2.2.1]heptane-7-carbonyl]-1-cyclopropyl-7-fluoro-benzimidazol-2-yl]-8-chloro-2-methyl-3,9,16,22-tetrazatetracyclo[14.5.2.0^ {5,10}.0^{19,23}]tricosa-1(21),5(10),6,8,17,19,22-heptaen-4-one] |
| 75 | COc1cc(C(=O)N2C[C@H](N)C[C@@H](F)C2)cc2nc(-c3cc4ccc5nc4n3CC(F)(F)CCCC[C@@](C)(C(F)(F)F)C(=O)N[C@@H]5C)n(C)c12 [Example 728, (8~{R},11~{R})-17-[5-[(3~ {R},5~{R})-3-amino-5-fluoro-piperidine-1-carbonyl]-7-methoxy-1-methyl-benzimidazol-2-yl]-3,3-difluoro-8,11-dimethyl-8-(trifluoromethyl)-1,10,19-triazatricyclo[10.5.2.0^ {15,18}]nonadeca-12(19),13,15(18),16-tetraen-9-one] |
